Results reported in article PMC3445516 (PLoS ONE, 2012).
Read-outs that look alike come from different tables or passages of the source.

Columns and labels:
Assay in all cases: Ambit kinase profiling, competition binding
ACVR1B = molecular target: T1, ACVR1B (Homo sapiens, UniProt P36896)
T1 construct: purchased Ambit Biosciences (KINOMEscan)
T1 sequence (P36896 24-505): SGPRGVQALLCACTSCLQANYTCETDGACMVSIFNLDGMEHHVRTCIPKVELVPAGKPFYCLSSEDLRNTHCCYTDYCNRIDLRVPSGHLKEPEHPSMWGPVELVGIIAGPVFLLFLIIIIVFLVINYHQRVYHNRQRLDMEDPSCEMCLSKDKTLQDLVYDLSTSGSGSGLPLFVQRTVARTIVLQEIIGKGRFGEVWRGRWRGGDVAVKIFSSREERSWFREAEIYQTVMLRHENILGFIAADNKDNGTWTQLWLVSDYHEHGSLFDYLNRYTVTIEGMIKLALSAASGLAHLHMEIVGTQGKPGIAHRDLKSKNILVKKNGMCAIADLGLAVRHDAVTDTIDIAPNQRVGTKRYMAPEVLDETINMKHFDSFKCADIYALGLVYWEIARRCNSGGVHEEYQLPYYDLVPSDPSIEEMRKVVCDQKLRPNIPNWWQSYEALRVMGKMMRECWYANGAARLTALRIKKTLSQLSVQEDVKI
Procedure: (§1) Also included in the kinase profile are four isoforms of PKC (δ, ε, η, θ) and eight isoforms of CAMKs (CAMKIα, δ, γ; CAMKIIα, β, δ, γ; CAMK4).
(§2) The global kinase profiling experiment was performed by Ambit Biosciences.

ACVR2B = molecular target: T2, ACVR2B (Homo sapiens, UniProt Q13705); settings: for % Competition: 10 µM
T2 construct: purchased Ambit Biosciences (KINOMEscan)
Procedure: as §1, §2

ACVRL1 = molecular target: T3, ACVRL1 (Homo sapiens, UniProt P37023)
T3 construct: purchased Ambit Biosciences (KINOMEscan)
Procedure: as §1, §2

EGFR(L861Q) = molecular target: T4, EGFR(L861Q) (Homo sapiens, UniProt P00533, L861Q); settings: for % Competition: 10 µM
T4 construct: purchased Ambit Biosciences (KINOMEscan)
Procedure: as §1, §2

JNK1 = molecular target: T5, JNK1 (Homo sapiens, UniProt P45983); settings: for % Competition: 10 µM
T5 construct: purchased Ambit Biosciences (KINOMEscan)
Procedure: as §1, §2

JNK2 = molecular target: T6, JNK2 (Homo sapiens, UniProt P45984); settings: for % Competition: 10 µM
T6 construct: purchased Ambit Biosciences (KINOMEscan)
Procedure: as §1, §2

PRKD2 = molecular target: T7, PRKD2 (Homo sapiens, UniProt Q9BZL6)
T7 construct: purchased Ambit Biosciences (KINOMEscan)
T7 sequence (Q9BZL6 1-878): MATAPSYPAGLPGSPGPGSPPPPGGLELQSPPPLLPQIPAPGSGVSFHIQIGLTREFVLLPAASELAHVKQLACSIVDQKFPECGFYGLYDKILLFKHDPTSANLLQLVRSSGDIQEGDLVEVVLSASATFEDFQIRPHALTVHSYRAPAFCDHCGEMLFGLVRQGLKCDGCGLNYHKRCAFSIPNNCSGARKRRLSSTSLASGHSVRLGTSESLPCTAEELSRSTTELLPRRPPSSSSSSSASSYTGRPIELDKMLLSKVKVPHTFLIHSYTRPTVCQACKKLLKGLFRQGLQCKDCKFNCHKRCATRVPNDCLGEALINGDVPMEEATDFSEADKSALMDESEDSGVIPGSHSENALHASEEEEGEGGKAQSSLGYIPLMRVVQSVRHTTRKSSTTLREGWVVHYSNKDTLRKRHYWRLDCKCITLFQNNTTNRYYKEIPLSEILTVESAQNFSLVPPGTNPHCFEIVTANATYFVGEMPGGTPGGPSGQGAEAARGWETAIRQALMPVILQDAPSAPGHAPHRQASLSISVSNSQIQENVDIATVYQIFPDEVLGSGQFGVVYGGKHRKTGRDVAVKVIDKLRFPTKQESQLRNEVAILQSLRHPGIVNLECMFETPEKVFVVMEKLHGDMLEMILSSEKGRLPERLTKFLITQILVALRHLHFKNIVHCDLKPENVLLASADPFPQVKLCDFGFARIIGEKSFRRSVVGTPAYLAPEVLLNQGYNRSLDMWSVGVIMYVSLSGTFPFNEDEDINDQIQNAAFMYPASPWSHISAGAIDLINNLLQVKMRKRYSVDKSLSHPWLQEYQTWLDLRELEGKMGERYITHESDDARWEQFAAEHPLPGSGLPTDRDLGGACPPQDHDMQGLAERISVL
Procedure: as §1, §2

RAF1 = molecular target: T8, RAF1 (Homo sapiens, UniProt P04049)
T8 construct: purchased Ambit Biosciences (KINOMEscan)
Procedure: as §1, §2

[1] = molecular target: T9, RPS6KA6(Kin.Dom.2-C-terminal) (Homo sapiens, UniProt Q9UK32); settings: for % Competition: 10 µM
T9 construct: RPS6KA6(Kin.Dom.2-C-terminal); purchased Ambit Biosciences (KINOMEscan)
T9 sequence (Q9UK32 401-745 limits assumed): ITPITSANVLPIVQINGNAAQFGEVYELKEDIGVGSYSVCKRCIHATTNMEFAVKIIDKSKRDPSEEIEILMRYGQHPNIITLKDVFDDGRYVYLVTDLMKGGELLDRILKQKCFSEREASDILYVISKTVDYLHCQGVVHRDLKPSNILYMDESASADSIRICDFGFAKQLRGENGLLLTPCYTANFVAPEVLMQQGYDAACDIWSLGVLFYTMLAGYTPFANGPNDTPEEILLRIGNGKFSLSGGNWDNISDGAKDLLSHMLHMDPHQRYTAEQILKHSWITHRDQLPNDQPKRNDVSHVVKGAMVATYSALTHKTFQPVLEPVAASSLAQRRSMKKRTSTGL
Procedure: as §1, §2

[2] = molecular target: T10, TYK2 (JH2 domain-pseudokinase) (Homo sapiens, UniProt P29597); settings: for % Competition: TYK2 (JH2 domain-pseudokinase), 10 µM
T10 construct: TYK2 (JH2 domain-pseudokinase); purchased Ambit Biosciences (KINOMEscan)
Procedure: as §1, §2

p38-beta = molecular target: T11, p38-beta (Homo sapiens, UniProt Q15759)
T11 construct: purchased Ambit Biosciences (KINOMEscan)
Procedure: as §1, §2

T2 sequence (Q13705 19-512): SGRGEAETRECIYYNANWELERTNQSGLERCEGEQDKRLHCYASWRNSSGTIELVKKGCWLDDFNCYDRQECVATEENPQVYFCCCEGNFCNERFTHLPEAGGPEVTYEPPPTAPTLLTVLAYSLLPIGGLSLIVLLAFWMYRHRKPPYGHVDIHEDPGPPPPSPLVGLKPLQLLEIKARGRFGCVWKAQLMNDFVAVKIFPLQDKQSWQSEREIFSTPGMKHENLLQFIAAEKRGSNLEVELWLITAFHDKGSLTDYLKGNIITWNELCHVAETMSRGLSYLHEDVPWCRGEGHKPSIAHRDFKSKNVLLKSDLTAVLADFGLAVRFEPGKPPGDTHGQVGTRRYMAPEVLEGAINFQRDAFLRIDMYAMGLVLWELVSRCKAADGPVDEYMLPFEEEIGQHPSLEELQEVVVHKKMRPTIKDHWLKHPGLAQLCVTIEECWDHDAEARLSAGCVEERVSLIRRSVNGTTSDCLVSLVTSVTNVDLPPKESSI
T11 sequence (Q15759 whole entry): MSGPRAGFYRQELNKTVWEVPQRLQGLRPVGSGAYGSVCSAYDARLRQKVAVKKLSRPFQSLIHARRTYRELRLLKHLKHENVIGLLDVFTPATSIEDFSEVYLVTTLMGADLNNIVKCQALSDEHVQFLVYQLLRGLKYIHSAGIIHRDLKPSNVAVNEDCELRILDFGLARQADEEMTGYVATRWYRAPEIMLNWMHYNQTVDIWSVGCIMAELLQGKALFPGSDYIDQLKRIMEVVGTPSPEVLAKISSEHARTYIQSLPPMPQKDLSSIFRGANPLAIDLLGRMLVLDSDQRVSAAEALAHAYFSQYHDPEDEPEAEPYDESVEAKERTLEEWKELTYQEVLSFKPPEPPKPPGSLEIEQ
T10 sequence (P29597 556-888 limits assumed): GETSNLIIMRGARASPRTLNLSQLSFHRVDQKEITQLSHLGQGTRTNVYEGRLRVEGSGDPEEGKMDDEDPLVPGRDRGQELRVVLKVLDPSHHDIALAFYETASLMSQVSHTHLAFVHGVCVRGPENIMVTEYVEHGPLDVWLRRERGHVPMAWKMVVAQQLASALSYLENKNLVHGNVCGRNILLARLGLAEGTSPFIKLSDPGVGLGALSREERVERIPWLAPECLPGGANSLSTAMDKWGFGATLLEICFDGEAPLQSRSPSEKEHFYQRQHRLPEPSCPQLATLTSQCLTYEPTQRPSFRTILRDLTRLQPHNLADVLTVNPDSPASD
T3 sequence (P37023 22-503): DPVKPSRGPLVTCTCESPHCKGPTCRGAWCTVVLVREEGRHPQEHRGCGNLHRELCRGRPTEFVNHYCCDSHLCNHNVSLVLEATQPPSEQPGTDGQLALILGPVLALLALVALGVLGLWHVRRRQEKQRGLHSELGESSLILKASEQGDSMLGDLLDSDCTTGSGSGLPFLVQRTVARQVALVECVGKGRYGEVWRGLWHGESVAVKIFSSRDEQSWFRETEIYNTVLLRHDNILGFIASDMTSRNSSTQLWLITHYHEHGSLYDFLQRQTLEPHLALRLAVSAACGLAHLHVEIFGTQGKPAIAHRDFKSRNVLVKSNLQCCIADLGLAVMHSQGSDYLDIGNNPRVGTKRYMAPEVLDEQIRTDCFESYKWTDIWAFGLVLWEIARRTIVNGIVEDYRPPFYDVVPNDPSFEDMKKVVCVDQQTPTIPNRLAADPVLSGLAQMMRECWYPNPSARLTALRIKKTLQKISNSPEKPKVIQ
T8 sequence (P04049 whole entry): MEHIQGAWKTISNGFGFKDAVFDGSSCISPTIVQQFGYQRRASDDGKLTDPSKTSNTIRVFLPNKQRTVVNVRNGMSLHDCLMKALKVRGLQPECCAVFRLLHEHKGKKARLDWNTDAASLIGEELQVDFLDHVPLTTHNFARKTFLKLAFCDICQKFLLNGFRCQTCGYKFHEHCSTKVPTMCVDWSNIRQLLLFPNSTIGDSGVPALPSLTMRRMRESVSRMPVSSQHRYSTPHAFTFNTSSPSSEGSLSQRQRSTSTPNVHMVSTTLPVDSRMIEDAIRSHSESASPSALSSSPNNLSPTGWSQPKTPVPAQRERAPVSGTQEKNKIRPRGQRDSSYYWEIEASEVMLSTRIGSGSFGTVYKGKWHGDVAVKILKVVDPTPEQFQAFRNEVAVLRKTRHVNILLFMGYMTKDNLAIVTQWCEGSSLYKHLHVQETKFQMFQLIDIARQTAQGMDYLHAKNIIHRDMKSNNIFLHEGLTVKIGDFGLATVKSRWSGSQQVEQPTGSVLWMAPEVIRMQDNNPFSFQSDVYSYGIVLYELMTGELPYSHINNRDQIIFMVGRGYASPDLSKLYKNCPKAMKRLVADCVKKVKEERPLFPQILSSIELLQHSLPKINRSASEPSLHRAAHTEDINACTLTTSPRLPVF
T5 sequence (P45983 whole entry): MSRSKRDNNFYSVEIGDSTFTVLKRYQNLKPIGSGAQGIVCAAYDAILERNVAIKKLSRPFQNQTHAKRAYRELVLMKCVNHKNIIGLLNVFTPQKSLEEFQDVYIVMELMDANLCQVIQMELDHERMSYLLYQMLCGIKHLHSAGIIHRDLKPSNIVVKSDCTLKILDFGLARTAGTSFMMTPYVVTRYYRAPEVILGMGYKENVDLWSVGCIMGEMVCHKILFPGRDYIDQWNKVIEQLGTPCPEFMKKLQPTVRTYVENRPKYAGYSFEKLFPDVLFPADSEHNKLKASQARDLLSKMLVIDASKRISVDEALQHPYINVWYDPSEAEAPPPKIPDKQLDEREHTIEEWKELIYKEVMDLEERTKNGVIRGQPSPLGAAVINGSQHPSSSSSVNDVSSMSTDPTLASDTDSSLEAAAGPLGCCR
T6 sequence (P45984 whole entry): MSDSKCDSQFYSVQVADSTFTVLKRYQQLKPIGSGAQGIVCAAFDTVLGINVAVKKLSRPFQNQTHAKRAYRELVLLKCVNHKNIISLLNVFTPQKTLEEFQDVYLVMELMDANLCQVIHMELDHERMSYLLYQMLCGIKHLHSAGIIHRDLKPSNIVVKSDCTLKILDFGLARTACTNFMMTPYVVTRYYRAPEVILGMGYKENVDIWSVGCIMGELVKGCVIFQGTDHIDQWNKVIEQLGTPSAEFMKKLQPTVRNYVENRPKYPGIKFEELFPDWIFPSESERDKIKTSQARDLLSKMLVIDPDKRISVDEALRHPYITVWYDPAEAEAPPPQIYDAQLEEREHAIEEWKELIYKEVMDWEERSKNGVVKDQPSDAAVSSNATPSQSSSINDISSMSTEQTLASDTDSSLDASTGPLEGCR

## CC(O)CNc1cc(-c2[nH]c3cccnc3c2-c2ccc(F)cc2)ccn1 (stereo not drawn) [Compound 140]
ACVR1B; read-out: % Competition
  inhibition at 10 µM: < 50%
ACVR2B
  % Competition: <50%
ACVRL1; read-out: % Competition
  inhibition at 10 µM: < 50%
EGFR(L861Q)
  % Competition: 87%
JNK1
  % Competition: 100%
JNK2
  % Competition: 100%
PRKD2; read-out: % Competition
  inhibition at 10 µM: 99%
RAF1; read-out: % Competition
  inhibition at 10 µM: < 50%
[1]
  % Competition: 96%
[2]
  % Competition: 92%
p38-beta; 10 µM
  % Competition: 100%

## Fc1ccc(-c2c(-c3ccncc3)[nH]c3nccnc23)cc1 [RO1155697-000-005]
ACVR1B; ACVR1B, compound concentration 10 uM, read-out: Percent Competition
  inhibition at 10 µM: 91%
ACVR2B; compound concentration 10 uM
  Percent Competition: 92%
ACVRL1; ACVRL1, compound concentration 10 uM, read-out: Percent Competition
  inhibition at 10 µM: 83%
EGFR(L861Q); compound concentration 10 uM
  Percent Competition: 97%
JNK1; compound concentration 10 uM
  Percent Competition: 100%
JNK2; compound concentration 10 uM
  Percent Competition: 100%
PRKD2; PRKD2, compound concentration 10 uM, read-out: Percent Competition
  inhibition at 10 µM: 98%
RAF1; RAF1, compound concentration 10 uM, read-out: Percent Competition
  inhibition at 10 µM: 81%
[1]; compound concentration 10 uM
  Percent Competition: 98%
[2]; TYK2(JH2domain-pseudokinase), compound concentration 10 uM
  Percent Competition: 78%
p38-beta; compound concentration 10 uM, read-out: Percent Competition
  inhibition at 10 µM: 100%

## Fc1ccc(-c2c(-c3ccncc3)[nH]c3nccnc23)cc1 [Compound 122]
ACVR1B; ACVR1B, 10 µM, read-out: % Competition
  inhibition at 10 µM: 91%
ACVR2B
  % Competition: 92%
ACVRL1; ACVRL1, 10 µM, read-out: % Competition
  inhibition at 10 µM: 83%
EGFR(L861Q)
  % Competition: 97%
JNK1
  % Competition: 100%
JNK2
  % Competition: 100%
PRKD2; PRKD2 (PKD2), 10 µM, read-out: % Competition
  inhibition at 10 µM: 98%
RAF1; RAF1, 10 µM, read-out: % Competition
  inhibition at 10 µM: 81%
[1]
  % Competition: 98%
[2]
  % Competition: 78%
p38-beta; 10 µM, read-out: % Competition
  inhibition at 10 µM: 100%
